One data set has as its target T1, GLP-1R (Homo sapiens, UniProt P43220).
T1 construct: expressed in transfected cells
Put plainly: GLP-1R agonistic effect in GLP1R-cAmp-Luc cells (luciferase reporter; titled 'Enzymatic assay'). The class given is cell-based. The conditions noted are these: for EC50: 4 hours incubation, firefly luciferin signal; for EC50 of Positive reference / EC50 of Compound of the Present Application: Positive reference is PF-06882961. Here is the method:
The GLP-1R agonistic effects of the test compounds were determined using GLP1R-cAmp-Luc cells. 1) The test compound was dissolved in DMSO and mixed well until the test compound was completely dissolved. The test compounds were dissolved in DMSO to prepare 10 mM stock solutions. All compounds were diluted with DMEM medium (high sugar, Puromycin^+, Hygromycin B^+) to an initial concentration of 1250 nM, and then subjected to 5-fold serial dilution to a total of 7 concentration gradients. The GLP1R-cAmp-Luc cells were seeded in white-wall 96-well cell culture plates at a density of 1×10^5/mL, with 90 µL cell suspension per well; the test compound at each of the 7 concentration gradients was added at 10 µL per well, with the actual initial working concentration of 125 nM; and the cells were placed in a 37 °C, 5% CO2 cell incubator for 4 hours; 2) 100 µL of luciferin potassium salt solution diluted to 300 µg/mL in PBS was added to each well at a working concentration of 150 µg/mL and incubated at room temperature for 30 minutes; 3) fluorescence signals of firefly luciferin were measured with a multifunctional microplate reader (PerkinElmer, Nivo); and the fluorescence values were processed using GraphPad Prism software to calculate EC50 values.
On the technique in general: Reporter assays use an easily measured gene product as a stand-in for the process of interest.

The nature of data set [1]: In vivo pharmacokinetic assay in mice. Particulars: mouse; ICR mice (female), oral gavage 10 mg/kg, plasma. Here is the method: Experimental animals: ICR mice (female, 22-25 g), purchased from Beijing Vital River Laboratory Animal Technology Co., Ltd.
Experimental procedure: ICR mice were administered the test compounds by gavage. Whole blood samples of the mice were collected at 15 min, 0.5 h, 1 h, 2 h, 4 h, 8 h and 24 h after administration and centrifuged to isolate plasma. The compound concentration was measured by LC-MS/MS, and pharmacokinetic parameters such as Area Under the Concentration-Time Curve (AUC) were calculated using Winnolin software.
Oral gavage dose: 10 mg/kg.
Measurement method: Quantitative analysis was carried out in the LC/MS/MS system after pretreatment with a protein precipitation method.

Data set [2] has as its system C57BL/6 hGLP1R transgenic mice. Put plainly: Determination of food intake inhibition rate. The conditions noted are these: C57BL/6 hGLP1R mice, gavage, 2mpk, administrated once. The format is in vivo. Here is the method: The food intake of C57BL/6 hGLP1R transgenic mice in each cage was measured at 18:00 on the day before administration, and the remaining weight of food was measured at 8: 00 on the next day (day 0) The difference between the two measurements was recorded as the baseline food intake weight. The mice were randomly grouped (test compound group and vehicle group) according to the baseline food intake and body weight. The food intake and body weight of the mice at 0 h were measured before administration. The mice were administered by gavage at 20:00 on day 0, and then the food intake and body weight of the mice were measured at specific time points. The phase (within a defined period of time) food intake, phase food intake rate, cumulative (after administration to a specific time point) food intake, cumulative food intake rate and body weight were finally statistically analyzed to evaluate the food intake inhibitory effect of the compounds. Cumulative Food intake (g) = (mbefore)−(mafter). [formula]
"m before" is the weight of food before food intaking for the period of time, and "m after" is the weight of food after food intaking for the period of time. Food intake inhibition rate (%) = (1−(madministrationgroup)/(mvehiclegroup))*100. [formula]
"m administration group" is the cumulative food intake of the administration group during the period of time, and "m vehicle group" is the cumulative food intake of the vehicle group during the period of time.

T1 sequence (P43220 24-463, species assumed): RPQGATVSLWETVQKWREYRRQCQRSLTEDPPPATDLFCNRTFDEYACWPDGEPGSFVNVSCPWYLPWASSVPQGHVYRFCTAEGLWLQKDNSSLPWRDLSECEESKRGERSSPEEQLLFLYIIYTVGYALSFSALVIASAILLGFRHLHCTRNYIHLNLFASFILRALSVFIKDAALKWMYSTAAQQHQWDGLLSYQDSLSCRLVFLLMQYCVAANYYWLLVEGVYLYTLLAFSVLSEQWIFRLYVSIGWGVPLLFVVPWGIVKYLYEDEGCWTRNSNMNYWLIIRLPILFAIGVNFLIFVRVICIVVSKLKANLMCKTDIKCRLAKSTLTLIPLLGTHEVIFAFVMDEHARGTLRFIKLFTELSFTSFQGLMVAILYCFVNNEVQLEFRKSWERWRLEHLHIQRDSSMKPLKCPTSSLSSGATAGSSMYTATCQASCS

As usually defined, the EC50 is the concentration needed to bring the measured effect to its halfway point. The AUC(0-t) is the area under the concentration-time curve up to a stated or last time point. The compound `O=C(O)c1ccc2nc(Cc3c(F)cc(-c4cccc(OCc5ccc(Cl)cc5F)n4)c4c3CCO4)n(CC3(CF)CC3)c2c1` [Compound 14, 2-((7-(6-((4-chloro-2-fluorobenzyl)oxy)pyridin-2-yl)-5-fluoro-2,3-dihydrobenzofuran-4-yl)methyl)-1-((1-(fluoromethyl)cyclopropyl)methyl)-1H-benzo[d]imidazole-6-carboxylic acid] displayed an EC50 on GLP-1R of 1 to 5 nM. The compound further registered an AUC(0-t) in data set [1] of 12.7 µg·h/mL.

In data set [1], `COc1cc(C(F)(F)F)ccc1COc1cccc(-c2cc(F)c(Cc3nc4ccc(C(=O)O)cc4n3CC3(CF)CC3)c3c2OCC3)n1` [Compound 83, 2-((5-Fluoro-7-(6-((2-methoxy-4-(trifluoromethyl)benzyl)oxy)pyridin-2-yl)-2,3-dihydrobenzofuran-4-yl)methyl)-1-((1-(fluoromethyl)cyclopropyl)methyl)-1H-benzo[d]imidazole-6-carboxylic acid] showed an AUC(0-t) of 14 µg·h/mL.

Turning to `COc1cc(C(F)(F)F)ccc1COc1cccc(-c2cc(F)c(Cc3nc4c(OC)cc(C(=O)O)cc4n3CC3(CF)CC3)c3c2OCC3)n1` [Compound 89, 2-((5-Fluoro-7-(6-((2-methoxy-4-(trifluoromethyl)benzyl)oxy)pyridin-2-yl)-2,3-dihydrobenzofuran-4-yl)methyl)-1-((1-(fluoromethyl)cyclopropyl)methyl)-4-methoxy-1H-benzo[d]imidazole-6-carboxylic acid], the EC50 on GLP-1R is at most 1 nM. Also, the AUC(0-t) in data set [1] was 14.1 µg·h/mL.

With `COc1cc(C(=O)O)cc2c1nc(Cc1c(F)cc(-c3cccc(OCc4ccc(Cl)cc4F)n3)c3c1CCO3)n2CC1(CF)CC1` [Compound 92, 2-((7-(6-((4-Chloro-2-fluorobenzyl)oxy)pyridin-2-yl)-5-fluoro-2,3-dihydrobenzofuran-4-yl)methyl)-1-((1-(fluoromethyl)cyclopropyl)methyl)-4-methoxy-1H-benzo[d]imidazole-6-carboxylic acid], in data set [1], the AUC(0-t) came out at 23.7 µg·h/mL.

As to `COc1cc(C(=O)O)cc2c1nc(Cc1c(F)cc(-c3cccc(OCc4ccc(C#N)cc4F)n3)c3c1CCO3)n2CC1(CF)CC1` [Compound 93, 2-((7-(6-((4-Cyano-2-fluorobenzyl)oxy)pyridin-2-yl)-5-fluoro-2,3-dihydrobenzofuran-4-yl)methyl)-1-((1-(fluoromethyl)cyclopropyl)methyl)-4-methoxy-1H-benzo[d]imidazole-6-carboxylic acid], on GLP-1R, the EC50 was at most 1 nM. Moreover, in data set [1], the AUC(0-t) worked out at 8.44 µg·h/mL.

`COc1cc(C(=O)O)cc2c1nc(Cc1c(F)cc(-c3ccc(F)c(OCc4ccc(Cl)cc4F)n3)c3c1CCO3)n2C[C@@H]1CCO1` [Compound 101, (S)-2-((7-(6-((4-chloro-2-fluorobenzyl)oxy)-5-fluoropyridin-2-yl)-5-fluoro-2,3-dihydrobenzofuran-4-yl)methyl)-4-methoxy-1-(oxetan-2-ylmethyl)-1H-benzo[d]imidazole-6-carboxylic acid]: on GLP-1R, the EC50 is at most 1 nM and the “EC50 of Positive reference / EC50 of Compound of the Present Application” value was “Ratio ≥10”. The compound further returned an AUC(0-t) in data set [1] of 22.5 µg·h/mL. Further, the “cumulative food intake inhibition rate 0-2.5 hours” value in data set [2] (0-2.5 hours) is on record as 97%. Also, in data set [2] (0-5 hours), the “cumulative food intake inhibition rate 0-5 hours” value was 89%. Moreover, the “cumulative food intake inhibition rate 0-12 hours” value in data set [2] (0-12 hours) is listed as 75%.

On to `COc1cc(C(=O)O)cc2c1nc(Cc1c(F)cc(-c3ccc(F)c(OCc4ccc(Cl)cc4F)c3)c3c1CCO3)n2C[C@@H]1CCO1` [Compound 105, (S)-2-((7-(3-((4-chloro-2-fluorobenzyl)oxy)-4-fluorophenyl)-5-fluoro-2,3-dihydrobenzofuran-4-yl)methyl)-4-methoxy-1-(oxetan-2-ylmethyl)-1H-benzo[d]imidazole-6-carboxylic acid], for which the EC50 at GLP-1R fell in the range of 1 to 5 nM. The compound also displayed an AUC(0-t) in data set [1] of 6.9 µg·h/mL.

For the compound `COc1cc(C(=O)O)cc2c1nc(Cc1c(F)cc(-c3nc(OCc4ccc(Cl)cc4F)ncc3F)c3c1CCO3)n2C[C@@H]1CCO1` [Compound 118, (S)-2-((7-(2-((4-chloro-2-fluorobenzyl)oxy)-5-fluoropyrimidin-4-yl)-5-fluoro-2,3-dihydrobenzofuran-4-yl)methyl)-4-methoxy-1-(oxetan-2-ylmethyl)-1H-benzo[d]imidazole-6-carboxylic acid], at GLP-1R, the EC50 was at most 1 nM and the “EC50 of Positive reference / EC50 of Compound of the Present Application” value is recorded as “Ratio ≥10”. In data set [1], the AUC(0-t) worked out at 8.29 µg·h/mL.

For the compound `COc1cc(C(F)(F)F)ccc1COc1ncc(F)c(-c2cc(F)c(Cc3nc4c(OC)cc(C(=O)O)cc4n3C[C@@H]3CCO3)c3c2OCC3)n1` [Compound 130, (S)-2-((7-(5-fluoro-2-((2-methoxy-4-(trifluoromethyl)benzyl)oxy)pyrimidin-4-yl)-5-fluoro-2,3-dihydrobenzofuran-4-yl)methyl)-4-methoxy-1-(oxetan-2-ylmethyl)-1H-benzo[d]imidazole-6-carboxylic acid], at GLP-1R, the EC50 was at most 1 nM and the “EC50 of Positive reference / EC50 of Compound of the Present Application” value was “Ratio ≥10”.

In the case of `COc1cc(C(=O)O)cc2c1nc(Cc1c(F)cc(-c3nc(OCc4ccc(Cl)cc4OC(F)F)ncc3F)c3c1CCO3)n2C[C@@H]1CCO1` [Compound 131], at GLP-1R, the EC50 is at most 1 nM and the “EC50 of Positive reference / EC50 of Compound of the Present Application” value is “Ratio ≥10”.

`COc1cc(C(=O)O)cc2c1nc(Cc1c(F)cc(-c3ccc(F)c(OCc4ccc(C)cc4F)n3)c3c1CCO3)n2C[C@@H]1CCO1` [Compound 132, (S)-2-((7-(5-fluoro-6-((2-fluoro-4-methylbenzyl)oxy)pyridin-2-yl)-5-fluoro-2,3-dihydrobenzofuran-4-yl)methyl)-4-methoxy-1-(oxetan-2-ylmethyl)-1H-benzo[d]imidazole-6-carboxylic acid]: on GLP-1R, the EC50 was at most 1 nM and the “EC50 of Positive reference / EC50 of Compound of the Present Application” value is on record as “Ratio ≥10”. This compound also returned an AUC(0-t) in data set [1] of 19.5 µg·h/mL.

With `COc1cc(C(=O)O)cc2c1nc(Cc1c(F)cc(-c3ccnc(OCc4ccc(C)cc4F)n3)c3c1CCO3)n2C[C@@H]1CCO1` [Compound 133, (S)-2-((7-(2-((2-fluoro-4-methylbenzyl)oxy)pyrimidin-4-yl)-5-fluoro-2,3-dihydrobenzofuran-4-yl)methyl)-4-methoxy-1-(oxetan-2-ylmethyl)-1H-benzo[d]imidazole-6-carboxylic acid], at GLP-1R, the EC50 was at most 1 nM and the “EC50 of Positive reference / EC50 of Compound of the Present Application” value is listed as “Ratio ≥10”.

For `COc1cc(C(=O)O)cc2c1nc(Cc1c(F)cc(-c3nc(OCc4ccc(C)cc4F)ncc3F)c3c1CCO3)n2C[C@@H]1CCO1` [Compound 134], on GLP-1R, the EC50 is at most 1 nM and the “EC50 of Positive reference / EC50 of Compound of the Present Application” value is on record as “Ratio ≥10”. The compound further registered an AUC(0-t) in data set [1] of 15.7 µg·h/mL.

These data come from patent EP4748839A1 (CSPC Zhongqi Pharmaceutical Technology (Shijiazhuang) Co., …, priority 2023, dated 2025).
